Reference: the supplement of paper PMC11061612

Assays:
Test in all cases: Bliss excess, mean over the matrix (fraction); higher = more synergy
[1] = test system: BALL-1 (B-Lymphoblastic Leukemia)
Method in brief: (§1)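 Bliss excess equals the observed combination effect minus the expected value EA + EB − EA·EB, where EA and EB are the effects of each agent alone. Combination Emax is the second-highest inhibition within the matrix. Inhibition was scaled from CellTiter-Glo 2.0 luminescence, with 0 set by vehicle wells and 1 by blank wells, after 72 hours of two-drug dosing of cells plated in 1536-well plates.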

[2] = test system: Becker (Low Grade Glioma)
Method in brief: as §1

[3] = test system: CML-T1 (Chronic Myelogenous Leukemia)
Method in brief: as §1

[4] = test system: Calu-6 (Non-Small Cell Lung Carcinoma)
Method in brief: as §1

ES-2 (Ovarian Carcinoma) = test system: ES-2 (Ovarian Carcinoma)
Method in brief: as §1

[5] = test system: JHH-1 (Hepatocellular Carcinoma)
Method in brief: as §1

[6] = test system: KYSE-70 (Esophageal Squamous Cell Carcinoma)
Method in brief: as §1

[7] = test system: LAMA-84 (Chronic Myelogenous Leukemia)
Method in brief: as §1

[8] = test system: LOUCY (T-Lymphoblastic Leukemia)
Method in brief: as §1

[9] = test system: NCI-H1563 (Lung Adenocarcinoma)
Method in brief: as §1

[10] = test system: NCI-H810 (Non-Small Cell Lung Carcinoma)
Method in brief: as §1

[11] = test system: NKM-1 (Acute Myeloid Leukemia)
Method in brief: as §1

[12] = test system: OVTOKO (Ovarian Carcinoma)
Method in brief: as §1

[13] = test system: RERF-LC-KJ (Lung Adenocarcinoma)
Method in brief: as §1

[14] = test system: RL95-2 (Endometrial Carcinoma)
Method in brief: as §1

[15] = test system: RMG-I (Ovarian Carcinoma)
Method in brief: as §1

[16] = test system: RPMI-8866 (Chronic Myelogenous Leukemia)
Method in brief: as §1

[17] = test system: SJRH30 (Rhabdomyosarcoma)
Method in brief: as §1

[18] = test system: SK-MM-2 (Plasma Cell Myeloma)
Method in brief: as §1

[19] = test system: SW684 (Other Solid Carcinomas)
Method in brief: as §1

Row | SMILES | Bliss excess [1] | Bliss excess [2] | Bliss excess [3] | Bliss excess [4] | Bliss excess (ES-2 (Ovarian Carcinoma)) | Bliss excess [5] | Bliss excess [6] | Bliss excess [7] | Bliss excess [8] | Bliss excess [9] | Bliss excess [10] | Bliss excess [11] | Bliss excess [12] | Bliss excess [13] | Bliss excess [14] | Bliss excess [15] | Bliss excess [16] | Bliss excess [17] | Bliss excess [18] | Bliss excess [19]
1 | CC(=O)Nc1cccc(-n2c(=O)n(C3CC3)c(=O)c3c(Nc4ccc(I)cc4F)n(C)c(=O)c(C)c32)c1 [Trametinib] + Cc1nc(-c2cn3c(n2)-c2ccc(-c4cnn(C(C)(C)C(N)=O)c4)cc2OCC3)n(C(C)C)n1 [Taselisib] (first compound max 1 µM, 7x7, partner max 10 µM) | 0.142 | 0.121 | 0.0426 | 0.168 | 0.0915 | 0.0177 | 0.182 | 0.0537 | 0.0668 | 0.103 | -0.052 | 0.255 | 0.0659 | 0.0564 | 0.0378 | -0.0099 | 0.118 | 0.076 | 0.0386 | 0.161
2 | CC1(C)CCC(CN2CCN(c3ccc(C(=O)NS(=O)(=O)c4ccc(NCC5CCOCC5)c([N+](=O)[O-])c4)c(Oc4cnc5[nH]ccc5c4)c3)CC2)=C(c2ccc(Cl)cc2)C1 [Venetoclax] + C1CN(CCC1(C(=O)N[C@@H](CCO)C2=CC=C(C=C2)Cl)N)C3=NC=NC4=C3C=CN4 [Capivasertib] (first compound max 1 µM, 7x7, partner max 3 µM) | 0.0213 | 0.0046 | -0.0342 | -0.0558 | -0.0389 | -0.0721 | -0.0102 | -0.0498 | 0.104 | -0.0411 | -0.0663 | 0.0228 | -0.0546 | -0.0808 | -0.0102 | -0.0823 | -0.0224 | -0.0008 | -0.0449 | -0.0688
3 | CC1(C)CCC(CN2CCN(c3ccc(C(=O)NS(=O)(=O)c4ccc(NCC5CCOCC5)c([N+](=O)[O-])c4)c(Oc4cnc5[nH]ccc5c4)c3)CC2)=C(c2ccc(Cl)cc2)C1 [Venetoclax] + C=CCn1c(=O)c2cnc(Nc3ccc(N4CCN(C)CC4)cc3)nc2n1-c1cccc(C(C)(C)O)n1 [AZD1775] (first compound max 1 µM, partner max 1 µM) | 0.0171 | 0.0593 | 0.0106 | -0.0317 | -0.0297 | 0.0213 | -0.0169 | 0.0884 | 0.0193 | 0.0451 | -0.0873 | -0.0087 | -0.0903 | -0.0394 | 0.0277 | -0.0409 | -0.0547 | -0.045 | 0.102 | 0.032
4 | CC1(C)CCC(CN2CCN(c3ccc(C(=O)NS(=O)(=O)c4ccc(NCC5CCOCC5)c([N+](=O)[O-])c4)c(Oc4cnc5[nH]ccc5c4)c3)CC2)=C(c2ccc(Cl)cc2)C1 [Venetoclax] + CCN(CCO)CCCOc1ccc2c(Nc3cc(CC(=O)Nc4cccc(F)c4)[nH]n3)ncnc2c1 [AZD2811] (first compound max 1 µM, 7x7, partner max 1 µM) | 0.0632 | 0.0074 | 0.104 | 0.0331 | -0.0388 | -0.0166 | 0.0245 | -0.0036 | -0.0278 | 0.0151 | -0.034 | 0.0697 | -0.0183 | -0.0222 | 0.0814 | -0.055 | 0.133 | 0.0544 | -0.0099 | -0.0043
5 | CC1(C)CCC(CN2CCN(c3ccc(C(=O)NS(=O)(=O)c4ccc(NCC5CCOCC5)c([N+](=O)[O-])c4)c(Oc4cnc5[nH]ccc5c4)c3)CC2)=C(c2ccc(Cl)cc2)C1 [Venetoclax] + CN(C)CCCOc1ccc(-c2ccc3ncc4c(c3c2)n(C2CCOCC2)c(=O)n4C)cn1 [AZD0156] (first compound max 1 µM, 7x7, partner max 1 µM) | 0.031 | 0.0229 | 0.0232 | 0.0071 | 0.0069 | -0.042 | -0.0359 | 0.0018 | 0.0594 | -0.0099 | -0.0485 | -0.0963 | -0.086 | 0.013 | -0.0027 | -0.016 | -0.0408 | 0.0084 | -0.0129 | -0.0333
6 | CC1(C)CCC(CN2CCN(c3ccc(C(=O)NS(=O)(=O)c4ccc(NCC5CCOCC5)c([N+](=O)[O-])c4)c(Oc4cnc5[nH]ccc5c4)c3)CC2)=C(c2ccc(Cl)cc2)C1 [Venetoclax] + COc1cc(Nc2ncc3c(n2)-c2ccc(Cl)cc2C(c2c(F)cccc2OC)=NC3)ccc1C(=O)O [Alisertib] (first compound max 1 µM, 7x7, partner max 10 µM) | 0.0181 | 0.0786 | 0.0154 | -0.0071 | -0.0017 | 0.0308 | -0.0084 | -0.0447 | 0.0646 | -0.0523 | 0.0303 | 0.0087 | -0.0508 | -0.0527 | 0.0892 | -0.0513 | 0.0475 | 0.0315 | 0.0207 | -0.0688
7 | CC1(C)CCC(CN2CCN(c3ccc(C(=O)NS(=O)(=O)c4ccc(NCC5CCOCC5)c([N+](=O)[O-])c4)c(Oc4cnc5[nH]ccc5c4)c3)CC2)=C(c2ccc(Cl)cc2)C1 [Venetoclax] + C[C@@H]1COCCN1C2=NC(=NC(=C2)C3(CC3)[S@](=N)(=O)C)C4=C5C=CNC5=NC=C4 [AZD6738] (first compound max 1 µM, 7x7, partner max 10 µM) | 0.0053 | -0.0388 | 0.0145 | -0.0261 | -0.0372 | -0.0365 | -0.0447 | -0.0263 | -0.0462 | 0.0131 | -0.0356 | -0.0143 | -0.0395 | -0.0036 | -0.0361 | -0.0178 | 0.0052 | -0.0182 | 0.0217 | -0.0138
8 | CC1(C)CCC(CN2CCN(c3ccc(C(=O)NS(=O)(=O)c4ccc(NCC5CCOCC5)c([N+](=O)[O-])c4)c(Oc4cnc5[nH]ccc5c4)c3)CC2)=C(c2ccc(Cl)cc2)C1 [Venetoclax] + C[C@@H](Nc1cc(F)cc(F)c1)c1cc(C(=O)N(C)C)cc2c(=O)cc(N3CCOCC3)oc12 [AZD8186] (first compound max 1 µM, 7x7, partner max 3 µM) | -0.0008 | 0.0404 | 0.0023 | -0.0446 | -0.0199 | -0.0413 | -0.0239 | -0.0006 | 0.0146 | 0.0389 | -0.0489 | 0.0937 | -0.0535 | -0.0632 | -0.0189 | -0.0274 | 0.0151 | -0.0248 | 0.024 | -0.0862
9 | CC1(C)CCC(CN2CCN(c3ccc(C(=O)NS(=O)(=O)c4ccc(NCC5CCOCC5)c([N+](=O)[O-])c4)c(Oc4cnc5[nH]ccc5c4)c3)CC2)=C(c2ccc(Cl)cc2)C1 [Venetoclax] + Cc1cc2ncnn2cc1Nc1ncc2c(n1)n(C1CCOCC1)c(=O)n2C [AZD7648] (first compound max 1 µM, 7x7, partner max 10 µM) | -0.0008 | 0.0128 | -0.0195 | 0.0067 | -0.0087 | -0.0374 | -0.0003 | -0.0041 | 0.0678 | -0.0123 | -0.028 | 0.0323 | -0.0518 | -0.0564 | -0.0025 | -0.0277 | -0.026 | 0.0112 | 0.0145 | -0.0627
10 | CC1(C)CCC(CN2CCN(c3ccc(C(=O)NS(=O)(=O)c4ccc(NCC5CCOCC5)c([N+](=O)[O-])c4)c(Oc4cnc5[nH]ccc5c4)c3)CC2)=C(c2ccc(Cl)cc2)C1 [Venetoclax] + Cn1cnc2c(F)c(Nc3ccc(Br)cc3Cl)c(C(=O)NOCCO)cc21 [Selumetinib] (first compound max 1 µM, 7x7, partner max 3 µM) | -0.0026 | -0.008 | 0.0069 | -0.0665 | -0.0367 | -0.0588 | 0.012 | -0.0157 | 0.0179 | 0.0042 | -0.052 | 0.0456 | -0.0544 | -0.0265 | -0.0313 | -0.0727 | -0.057 | -0.0199 | 0.0187 | -0.0631
